Where two headings read alike, the source gives them in different places.
Test system: HCV 1b genotype
Test: HCV Replicon assay (HCV-neo replicon cells, wild-type)
Format: cell-based
Conditions: Hepatitis C virus, HCV 1b genotype replicon
Procedure: An HCV Replicon assay was utilized in the present disclosure, and was prepared, conducted and validated as described in commonly owned PCT/US2006/022197 and in O'Boyle et. al. Antimicrob Agents Chemother. 2005 Apr;49(4):1346-53. Assay methods incorporating luciferase reporters have also been used as described (Apath.com).
HCV-neo replicon cells and replicon cells containing mutations in the NS5A region were used to test the currently described family of compounds. The compounds were determined to have more than 10-fold less inhibitory activity on cells containing mutations than wild-type cells. Thus, the compounds of the present disclosure can be effective in inhibiting the function of the HCV NS5A protein and are understood to be as effective in combinations as previously described in application PCT/US2006/022197 and commonly owned WO/O4014852. Further, the compounds of the present disclosure can be effective against the HCV 1b genotype. It should also be understood that the compounds of the present disclosure can inhibit multiple genotypes of HCV. […] In one embodiment, compounds of the present disclosure are inhibitory versus 1a, 1b, 2a, 2b, 3a, 4a, and 5a genotypes.

[1] = class symbols, read-out: EC50 Range
[2] = values given in pM, read-out: EC50

Row | Structure (SMILES) | EC50 [1] [nM] | also measured
1 | COC(=O)N[C@H](C(=O)N1CCC[C@H]1c1nc[nH]c1-c1cccc(C#Cc2ccc3[nH]c([C@@H]4CCCN4C(=O)[C@H](NC(=O)OC)C(C)C)nc3c2)c1)C(C)C (stereo in doubt) [J.281, methyl ((1S)-1-(((2S)-2-(5-(3-((2-((2S)-1-((2R)-2-((methoxycarbonyl)amino)-3-methylbutanoyl)-2-pyrrolidinyl)-1H-benzimidazol-5-yl)ethynyl)phenyl)-1H-imidazol-4-yl)-1-pyrrolidinyl)carbonyl)-2-methylpropyl)carbamate] | 4.57 to 99 | EC50 (values in nM, read-out: EC50): 7 nM
2 | COC(=O)N[C@H](C(=O)N1[C@@H]2C[C@@H]2C[C@H]1c1nc2c([nH]1)-c1ccc(-c3ccc4[nH]c([C@@H]5C[C@H]6C[C@H]6N5C(=O)[C@@H](NC(=O)OC)C(C)C)nc4c3)cc1CCC2)C(C)C [J.24, methyl ((1S)-1-(((1R,3S,5R)-3-(8-(2-((1R,3S,5R)-2-((2S)-2-((methoxycarbonyl)amino)-3-methylbutanoyl)-2-azabicyclo[3.1.0]hex-3-yl)-1H-benzimidazol-5-yl)-1,4,5,6-tetrahydrobenzo[3,4]cyclohepta[1,2-d]imidazol-2-yl)-2-azabicyclo[3.1.0]hex-2-yl)carbonyl)-2-methylpropyl)carbamate] |  | EC50 [2]: 0.01 nM
3 | COC(=O)N[C@H](C(=O)N1CCC[C@H]1c1nc(-c2ccc(-c3ccc(-c4ccc5[nH]c([C@@H]6CCCN6C(=O)[C@@H](NC(=O)OC)C(C)C)nc5c4)cc3)cc2)c[nH]1)C(C)C [J.26, methyl ((1S)-1-(((2S)-2-(5-(4'-(2-((2S)-1-((2S)-2-((methoxycarbonyl)amino)-3-methylbutanoyl)-2-pyrrolidinyl)-1H-imidazol-4-yl)-4-biphenylyl)-1H-benzimidazol-2-yl)-1-pyrrolidinyl)carbonyl)-2-methylpropyl)carbamate] |  | EC50 [2]: 0.005 nM
4 | COC(=O)N[C@@H](C(=O)N1CCC[C@H]1c1nc2cc(-c3ccc(-c4ccc5c(ccc6nc([C@@H]7CCCN7C(=O)[C@H](NC(=O)OC)c7ccccc7)[nH]c65)c4)cc3)ccc2[nH]1)c1ccccc1 [J.27c, methyl ((1R)-2-((2S)-2-(7-(4-(2-((2S)-1-((2R)-2-((methoxycarbonyl)amino)-2-phenylacetyl)-2-pyrrolidinyl)-1H-benzimidazol-5-yl)phenyl)-1H-naphtho[1,2-d]imidazol-2-yl)-1-pyrrolidinyl)-2-oxo-1-phenylethyl)carbamate] |  | EC50 [2]: 0.003 nM
5 | COC(=O)N[C@H](C(=O)N1CCC[C@H]1c1nc2c(F)cc(C#Cc3ccc4c(ccc5nc([C@@H]6CCCN6C(=O)[C@@H](NC(=O)OC)C(C)C)[nH]c54)c3)cc2[nH]1)C(C)C [J.28h, methyl ((1S)-1-(((2S)-2-(4-fluoro-6-((2-((2S)-1-((2S)-2-((methoxycarbonyl)amino)-3-methylbutanoyl)-2-pyrrolidinyl)-1H-naphtho [1,2-d]imidazol-7-yl)ethynyl)-1H-benzimidazol-2-yl)-1-pyrrolidinyl)carbonyl)-2-methylpropyl)carbamate] |  | EC50 [2]: 0.12 nM
6 | COC(=O)NC(C(=O)N1[C@@H](C)CC[C@H]1c1nc2ccc3cc(C#Cc4ccc5[nH]c([C@@H]6CC[C@H](C)N6C(=O)[C@@H](NC(=O)OC)C(C)C)nc5c4)ccc3c2[nH]1)C1CCOCC1 (stereo partly drawn) [J.28i.4a, methyl ((1S)-1-(((2S,5S)-2-(5-((2-((2S,5S)-1-(((methoxycarbonyl)amino)(tetrahydro-2H-pyran-4-yl)acetyl)-5-methyl-2-pyrrolidinyl)-1H-naphtho[1,2-d]imidazol-7-yl)ethynyl)-1H-benzimidazol-2-yl)-5-methyl-1-pyrrolidinyl)carbonyl)-2-methylpropyl)carbamate] |  | EC50 (values in nM, read-out: EC50): 3.8 nM
7 | CCN(CC)[C@@H](C(=O)N1CCC[C@H]1c1nc2cc(C#Cc3cccc(-c4[nH]cnc4[C@@H]4CCCN4C(=O)[C@@H](c4ccccc4)N(CC)CC)c3)ccc2[nH]1)c1ccccc1 [J.28m, (1R)-2-((2S)-2-(5-(3-((2-((2S)-1-((2R)-2-(diethylamino)-2-phenylacetyl)-2-pyrrolidinyl)-1H-benzimidazol-5-yl)ethynyl)phenyl)-1H-imidazol-4-yl)-1-pyrrolidinyl)-N,N-diethyl-2-oxo-1-phenylethanamine] | 4.57 to 99 | EC50 (values in nM, read-out: EC50): 55.7 nM
8 | COc1cccc2c(C(=O)N3CCC[C@H]3C(=O)Nc3cccc(-c4ncc(-c5ccc6[nH]c([C@@H]7CCCN7C(=O)c7nc(Cl)cc8c(OC)cccc78)nc6c5)o4)c3)nc(Cl)cc12 [J.48d, 1-((3-chloro-5-methoxy-1-isoquinolinyl)carbonyl)-N-(3-(5-(2-((2S)-1-((3-chloro-5-methoxy-1-isoquinolinyl)carbonyl)-2-pyrrolidinyl)-1H-benzimidazol-5-yl)-1,3-oxazol-2-yl)phenyl)-L-prolinamide] | 100 to 999 | EC50 (values in nM, read-out: EC50): 147 nM
9 | O=C(Nc1ccc(-c2ncc(-c3ccc4[nH]c([C@@H]5CCCN5C(=O)[C@H](O)c5ccccc5)nc4c3)o2)cc1)[C@@H]1CCCN1C(=O)[C@H](O)c1ccccc1 [J.50, 1-((2R)-2-hydroxy-2-phenylacetyl)-N-(4-(5-(2-((2S)-1-((2R)-2-hydroxy-2-phenylacetyl)-2-pyrrolidinyl)-1H-benzimidazol-5-yl)-1,3-oxazol-2-yl)phenyl)-L-prolinamide] | 4.57 to 99 | 
10 | COc1cccc2c(C(=O)N3CCC[C@H]3C(=O)Nc3ccc(-c4ncc(-c5ccc6[nH]c([C@@H]7CCCN7C(=O)c7nc(Cl)cc8c(OC)cccc78)nc6c5)o4)cc3)nc(Cl)cc12 [J.50c, 1-((3-chloro-5-methoxy-1-isoquinolinyl)carbonyl)-N-(4-(5-(2-((2S)-1-((3-chloro-5-methoxy-1-isoquinolinyl)carbonyl)-2-pyrrolidinyl)-1H-benzimidazol-5-yl)-1,3-oxazol-2-yl)phenyl)-L-prolinamide] | 1000 to 10000 | EC50 (value given in µM, read-out: EC50): > 10000 nM
11 | O=C(Nc1ccc(-c2ncc(-c3ccc4[nH]c([C@@H]5CCCN5C(=O)[C@H](O)c5ccccc5)nc4c3)o2)cc1F)[C@@H]1CCCN1C(=O)[C@H](O)c1ccccc1 [J.51, N-(2-fluoro-4-(5-(2-((2S)-1-((2R)-2-hydroxy-2-phenylacetyl)-2-pyrrolidinyl)-1H-benzimidazol-5-yl)-1,3-oxazol-2-yl)phenyl)-1-((2R)-2-hydroxy-2-phenylacetyl)-L-prolinamide] | 4.57 to 99 | 
12 | COc1cccc2c(C(=O)N3CCC[C@H]3C(=O)Nc3ccc(-c4ncc(-c5ccc6[nH]c([C@@H]7CCCN7C(=O)c7nc(Cl)cc8c(OC)cccc78)nc6c5)o4)cc3F)nc(Cl)cc12 [J.51b, 1-((3-chloro-5-methoxy-1-isoquinolinyl)carbonyl)-N-(4-(5-(2-((2S)-1-((3-chloro-5-methoxy-1-isoquinolinyl)carbonyl)-2-pyrrolidinyl)-1H-benzimidazol-5-yl)-1,3-oxazol-2-yl)-2-fluorophenyl)-L-prolinamide] | 100 to 999 | 
13 | Cc1ccc(-c2ncc(-c3ccc4[nH]c([C@@H]5CCCN5C(=O)[C@@H](c5ccccc5)N(C)C)nc4c3)o2)cc1NC(=O)[C@@H]1CCCN1C(=O)CN(C)C [J.52a, N,N-dimethylglycyl-N-(5-(5-(2-((2S)-1-((2R)-2-(dimethylamino)-2-phenylacetyl)-2-pyrrolidinyl)-1H-benzimidazol-5-yl)-1,3-oxazol-2-yl)-2-methylphenyl)-L-prolinamide] | 4.57 to 99 | 
14 | O=C(Nc1cccc(-c2ncc(-c3ccc4[nH]c([C@@H]5CCCN5C(=O)CC5CC5)nc4c3)o2)c1)[C@@H]1CCCN1C(=O)CC1CC1 [J.53, 1-(cyclopropylacetyl)-N-(3-(5-(2-((2S)-1-(cyclopropylacetyl)-2-pyrrolidinyl)-1H-benzimidazol-5-yl)-1,3-oxazol-2-yl)phenyl)-L-prolinamide] | 100 to 999 | 
